Measurements: US20240199546A1, “INHIBITORS OF SOLUTE CARRIER FAMILY 6A MEMBER 19 (SLC6A19) AND METHODS OF USE THEREOF” (Maze Therapeutics, Inc., priority 2022, published 2024)

molecular target: T1, human SLC6A19 and TMEM27 (Homo sapiens, UniProt Q695T7); assay: Radiolabelled (3H) leucine uptake in CHO cells with doxycycline-inducible expression of human SLC6A19 and TMEM27 (Example B-1); format: cell-based; details: CHO cells with doxycycline-inducible expression of human SLC6A19 and TMEM27, read-out: SLC6A19_Radioligand Uptake Assay IC50
T1 construct: expressed in transfected cells
T1 sequence (Q695T7 1-634): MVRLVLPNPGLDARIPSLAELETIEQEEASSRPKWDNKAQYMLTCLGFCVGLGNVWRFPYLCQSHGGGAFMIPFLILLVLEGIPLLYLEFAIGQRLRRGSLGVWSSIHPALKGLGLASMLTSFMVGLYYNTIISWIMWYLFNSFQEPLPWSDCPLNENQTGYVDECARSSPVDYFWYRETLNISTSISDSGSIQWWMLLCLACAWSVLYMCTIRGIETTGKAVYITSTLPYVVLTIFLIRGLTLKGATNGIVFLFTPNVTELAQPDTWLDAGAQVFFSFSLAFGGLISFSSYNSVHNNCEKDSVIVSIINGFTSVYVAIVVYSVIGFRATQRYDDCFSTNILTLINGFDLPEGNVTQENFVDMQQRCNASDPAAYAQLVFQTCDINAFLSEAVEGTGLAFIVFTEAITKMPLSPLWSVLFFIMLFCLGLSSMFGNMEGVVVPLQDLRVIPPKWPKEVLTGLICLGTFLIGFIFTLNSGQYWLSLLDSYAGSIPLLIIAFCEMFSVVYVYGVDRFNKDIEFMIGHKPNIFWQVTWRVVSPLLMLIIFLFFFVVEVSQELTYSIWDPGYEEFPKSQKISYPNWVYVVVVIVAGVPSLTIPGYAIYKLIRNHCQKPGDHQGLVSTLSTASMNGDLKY
T1 sequence (Q9HBJ8 15-222 partner): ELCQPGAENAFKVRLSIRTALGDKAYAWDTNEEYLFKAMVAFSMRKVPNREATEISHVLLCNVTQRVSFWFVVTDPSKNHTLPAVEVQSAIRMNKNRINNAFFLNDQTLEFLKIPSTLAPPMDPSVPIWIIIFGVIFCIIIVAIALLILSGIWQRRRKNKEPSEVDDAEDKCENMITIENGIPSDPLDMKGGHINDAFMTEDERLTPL
Method in brief: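 CHO cells were induced with doxycycline for 18 h at 37 °C, washed in HBSS, then exposed to compounds for 1 h: 8-point, 3-fold dilutions in duplicate, 0.5% DMSO final. Uptake measured by scintillation counting after 2 h shaking. Activity normalized with positive control as 0% and DMSO as 100%.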

SMILES	IC50 [nM]
O=C(NCc1cc2ccc(OCc3ccon3)cc2[nH]1)N1CCC(F)C1 (centres unmarked) [Compound 200, 3-fluoro-N-((6-(isoxazol-3-ylmethoxy)-1H-indol-2-yl)methyl)pyrrolidine-1-carboxamide]	752
Cc1cc(COc2cc3[nH]c(CNC(=O)COC(F)F)cc3cc2Cl)on1 [Compound 294, N-((5-chloro-6-((3-methylisoxazol-5-yl)methoxy)-1H-indol-2-yl)methyl)-2-(difluoromethoxy)acetamide]	135
CC(=O)NCc1cc2cc(Cl)c(OC[C@H]3CCCO3)cc2[nH]1 [Compound 465, (R)-N-((5-chloro-6-((tetrahydrofuran-2-yl)methoxy)-1H-indol-2-yl)methyl)acetamide]	6210
O=C(NCc1cc2cc(Cl)c(OCc3cscn3)cc2[nH]1)C1(CO)CC1 [Compound 254, N-((5-chloro-6-(thiazol-4-ylmethoxy)-1H-indol-2-yl)methyl)-1-(hydroxymethyl)cyclopropane-1-carboxamide]	294
C[C@H]1CCN1C(=O)NCc1cc2cc(Cl)c(OCc3cscn3)cc2[nH]1 [Compound 360, (S)-N-((5-chloro-6-(thiazol-4-ylmethoxy)-1H-indol-2-yl)methyl)-2-methylazetidine-1-carboxamide]	432
Cc1cc(COc2cc3[nH]c(CNC(=O)C4(C)CC4)cc3cc2Cl)ns1 [Compound 399, N-((5-chloro-6-((5-methylisothiazol-3-yl)methoxy)-1H-indol-2-yl)methyl)-1-methylcyclopropane-1-carboxamide]	429
CNC(=O)NCc1cc2cc(F)c(OCc3cc(C)no3)cc2[nH]1 [Compound 210, 1-((5-fluoro-6-((3-methylisoxazol-5-yl)methoxy)-1H-indol-2-yl)methyl)-3-methylurea]	293
CC1(C(=O)NCc2cc3cc(Cl)c(OCc4cscn4)cc3[nH]2)CCC1 [Compound 506, N-((5-chloro-6-(thiazol-4-ylmethoxy)-1H-indol-2-yl)methyl)-1-methylcyclobutane-1-carboxamide]	331
Cc1cc(COc2cc3[nH]c(CNC(=O)N4CCC45COC5)cc3cc2Cl)on1 [Compound 378, N-((5-chloro-6-((3-methylisoxazol-5-yl)methoxy)-1H-indol-2-yl)methyl)-6-oxa-1-azaspiro[3.3]heptane-1-carboxamide]	5510
O=C(NCc1cc2cc(F)c(OCc3cscn3)cc2[nH]1)N1CCC1 [Compound 92, N-((5-fluoro-6-(thiazol-4-ylmethoxy)-1H-indol-2-yl)methyl)azetidine-1-carboxamide]	214
Cc1cc(COc2cc3[nH]c(CNC(=O)[C@@H](C)O)cc3cc2F)on1 [Compound 283, (R)-N-((5-fluoro-6-((3-methylisoxazol-5-yl)methoxy)-1H-indol-2-yl)methyl)-2-hydroxypropanamide]	> 8950
COCC(=O)NCc1cc2cc(F)c(OCc3cscn3)cc2[nH]1 [Compound 265, N-((5-fluoro-6-(thiazol-4-ylmethoxy)-1H-indol-2-yl)methyl)-2-methoxyacetamide]	120
O=C(NCc1cc2cc(Cl)c(OCc3cscn3)cc2[nH]1)[C@H]1CCO1 [Compound 259, (R)-N-((5-chloro-6-(thiazol-4-ylmethoxy)-1H-indol-2-yl)methyl)oxetane-2-carboxamide]	121
O=C(NCc1cc2cc(Cl)c(OCc3ccon3)cc2[nH]1)N1CCOCC1 [Compound 84, N-((5-chloro-6-(isoxazol-3-ylmethoxy)-1H-indol-2-yl)methyl)morpholine-4-carboxamide]	690
COC(C)COc1cc2[nH]c(CNC(=O)C3(C)CC3)cc2cc1Cl (centres unmarked) [Compound 454, N-((5-chloro-6-(2-methoxypropoxy)-1H-indol-2-yl)methyl)-1-methylcyclopropane-1-carboxamide]	787
O=C(NCc1cc2cc(OC(F)(F)F)c(CCc3cocn3)cc2[nH]1)N1CCC1 [Compound 467, N-((6-(2-(oxazol-4-yl)ethyl)-5-(trifluoromethoxy)-1H-indol-2-yl)methyl)azetidine-1-carboxamide]	145
Cc1cc(COc2cc3[nH]c(CNC(=O)C4CCO4)cc3cc2Cl)on1 (centres unmarked) [Compound 278, N-((5-chloro-6-((3-methylisoxazol-5-yl)methoxy)-1H-indol-2-yl)methyl)oxetane-2-carboxamide]	108
Cc1cc(COc2cc3[nH]c(CNC(=O)[C@@H](C)CO)cc3cc2Cl)on1 [Compound 535, (S)-N-((5-chloro-6-((3-methylisoxazol-5-yl)methoxy)-1H-indol-2-yl)methyl)-3-hydroxy-2-methylpropanamide]	1650
Cc1cc(COc2cc3[nH]c(CNC(=O)[C@H](O)CF)cc3cc2Cl)on1 [Compound 246, (S)-N-((5-chloro-6-((3-methylisoxazol-5-yl)methoxy)-1H-indol-2-yl)methyl)-3-fluoro-2-hydroxypropanamide]	411
O=C(NCc1cc2cc(Cl)c(OCc3cocn3)cc2[nH]1)C1CC1 [Compound 429, N-((5-chloro-6-(oxazol-4-ylmethoxy)-1H-indol-2-yl)methyl)cyclopropanecarboxamide]	215
CC1(C(=O)NCc2cc3cc(OC(F)(F)F)c(OCc4cocn4)cc3[nH]2)CC1 [Compound 439, 1-methyl-N-((6-(oxazol-4-ylmethoxy)-5-(trifluoromethoxy)-1H-indol-2-yl)methyl)cyclopropane-1-carboxamide]	327

Other lines, results leading:

IC50 [nM]	SMILES
> 8440	O=C(NCCO)NCc1cc2cc(Cl)c(OCc3cscn3)cc2[nH]1 [Compound 619, 1-((5-chloro-6-(thiazol-4-ylmethoxy)-1H-indol-2-yl)methyl)-3-(2-hydroxyethyl)urea]
1000	CC1(C(=O)NCc2cc3cc(-c4cnco4)c(OCc4cscn4)cc3[nH]2)CC1 [Compound 661, 1-methyl-N-((5-(oxazol-5-yl)-6-(thiazol-4-ylmethoxy)-1H-indol-2-yl)methyl)cyclopropane-1-carboxamide]
342	O=C(NCc1cc2cc(Cl)c(OCc3cscn3)cc2[nH]1)C1CC12CC2 (centres unmarked) [Compound 553, N-((5-chloro-6-(thiazol-4-ylmethoxy)-1H-indol-2-yl)methyl)spiro[2.2]pentane-1-carboxamide]
1070	CN(Cc1cn[nH]c1)C(=O)NCc1cc2cc(Cl)c(OCc3ccon3)cc2[nH]1 [Compound 629, 1-((1H-pyrazol-4-yl)methyl)-3-((5-chloro-6-(isoxazol-3-ylmethoxy)-1H-indol-2-yl)methyl)-1-methylurea]
455	CC(=O)C(=O)NCc1cc2cc(Cl)c(OCc3cc(C)no3)cc2[nH]1 [Compound 582, N-((5-chloro-6-((3-methylisoxazol-5-yl)methoxy)-1H-indol-2-yl)methyl)-2-oxopropanamide]
307	O=C(NCc1cc2cc(OC(F)(F)F)c(CCc3ccon3)cc2[nH]1)N1CCC1 [Compound 597, N-((6-(2-(isoxazol-3-yl)ethyl)-5-(trifluoromethoxy)-1H-indol-2-yl)methyl)azetidine-1-carboxamide]
570	CC1CC(C(=O)NCc2cc3cc(Cl)c(OCc4cscn4)cc3[nH]2)C1 (centres unmarked) [Compound 561, N-((5-chloro-6-(thiazol-4-ylmethoxy)-1H-indol-2-yl)methyl)-3-methylcyclobutane-1-carboxamide]
1360	Cc1cc(COc2cc3[nH]c(CNC(=O)[C@H](C)CO)cc3cc2Cl)on1 [Compound 536, (R)-N-((5-chloro-6-((3-methylisoxazol-5-yl)methoxy)-1H-indol-2-yl)methyl)-3-hydroxy-2-methylpropanamide]
1440	Cc1cc(COc2cc3[nH]c(CNC(=O)[C@@H]4CCCN4C)cc3cc2Cl)on1 [Compound 577, (S)-N-((5-chloro-6-((3-methylisoxazol-5-yl)methoxy)-1H-indol-2-yl)methyl)-1-methylpyrrolidine-2-carboxamide]
657	Cc1cc(COc2cc3[nH]c(CNC(=O)N4CCC4C(F)F)cc3cc2Cl)on1 (racemic) [Compound 581, (S)-N-((5-chloro-6-((3-methylisoxazol-5-yl)methoxy)-1H-indol-2-yl)methyl)-2-(difluoromethyl)azetidine-1-carboxamide and (R)-N-((5-chloro-6-((3-methylisoxazol-5-yl)methoxy)-1H-indol-2-yl)methyl)-2-(difluoromethyl)azetidine-1-carboxamide]
537	O=C(NCc1cc2cc(C3CC3)c(OCc3ccon3)cc2[nH]1)N1CCCC1 [Compound 654, N-((5-cyclopropyl-6-(isoxazol-3-ylmethoxy)-1H-indol-2-yl)methyl)pyrrolidine-1-carboxamide]
